Experimental data: patent publication US6762188B1, “Pharmaceutically active benzoquinazoline compounds” (SmithKline Beecham Corporation, priority 1990, dated 2004)

system: SW480 human colon adenocarcinoma; test: Tumor cell culture cytotoxicity (MTT dye reduction), SW480; settings: Homo sapiens, SW480, read-out: Tumor Cell Culture Cytotoxicity IC50 SW480, Table C, 5,6-dihydro 3-amino derivatives
Experimental: SW480 and WiDr colon adenocarcinomas, MCF-7 breast adenocarcinoma, A427 lung carcinoma and MOLT-4 T-cell leukemia were used for the primary screening of compounds. […] MCF-7, A427 and SW480 were grown in the above medium further supplemented with sodium pyruvate.
Cells are seeded into 96-well plates using a Perkin-Elmer Pro/pette. SW480 and A427 were seeded at 8,000 cells per well, MCF-7 at 10,000, Widr at 7500, and MOLT-4 at 12,500 cells per well, all in 150 µl of medium. Prior to the addition of drugs, cultures were incubated for 24 hrs at 37°. Compounds were added at 2×concentration in 150 l of medium and each concentration was assayed in triplicate. If DMSO or ethanol were used to solubilize compounds, appropriate controls were run if the concentration exceeded 0.01%. Cultures were incubated for 72 hours (96 hours for SW480 and MCF-7) in a 37° humidified incubator at 5% CO2. Inhibition of cell growth was measured using the MTT dye reduction assay.
Cell dilutions for a standard curve were prepared from a 72 hour log-phase culture. Serial dilutions were seeded in triplicate in 96-well plates and incubated at 37 degrees for one hour. MTT (3-(4,5-dimethylthiazol-2-yl)-2,5-diphenyltetrazolium bromide) was dissolved in PBS at 5 mg/ml and sonicated for 30 seconds. Using the Perkin Elmer Pro/pette, 200 μl of medium was removed and 100 μl of MTT added to the wells of the standard curve and test plates. Suspension cultures were spun for 5 min at 1000 rpm before removing medium from the wells. Plates were incubated for 1 hour at 370 on a platform shaker. Following this incubation 100 ml of medium was removed from the wells and 100 μl of DMSO added to each well. The plates were sonicated for approximately 10 seconds to solubilize the precipitated formazan dye. The absorbance of each well was measured using a Titertek Multiscan MC microtiter plate reader at 570 nm with a reference wavelength of 750 nm. Data was collected using a Mariachi Seed-2 and stored and analyzed using an IBM-AT and Lotus 1-2-3 software.

| SMILES | IC50 [nM] |
| --- | --- |
| CCN(CC)S(=O)(=O)c1cc2c(cc1Br)CCc1nc(N)[nH]c(=O)c1-2 [3-Amino-8-bromo-N,N-diethyl-1,2,5,6-tetrahydro-1-oxobenzo(f)quinazoline-9-sulfonamide] | 7500 |

same assay, conditions: Homo sapiens, SW480, read-out: Tumor Cell Culture Cytotoxicity IC50 SW480, Table D, 5,6-dihydro 3-methyl derivatives

| SMILES | IC50 [nM] |
| --- | --- |
| Cc1nc2c(c(=O)[nH]1)-c1cc(S(=O)(=O)Nc3ccc(F)cc3)ccc1CC2 [4′-Fluoro-1,2,5,6-tetrahydro-3-methyl-1-oxobenzo(f)quinazoline-9-sulfonanilide] | 25000 |

same assay, conditions: Homo sapiens, SW480, read-out: Tumor Cell Culture Cytotoxicity IC50 SW480, Table E, fully aromatic 3-methyl derivatives

| SMILES | IC50 [nM] |
| --- | --- |
| Cc1nc2ccc3ccc(CNc4ccc(C(=O)CC(CCC(=O)O)C(=O)O)cc4)cc3c2c(=O)[nH]1 (racemic) [(RS)-2-(2-(4-(((1,2-Dihydro-3-methyl-1-oxobenzo[f]quinazolin-9-yl)methyl)amino)phenyl)-2-oxoethyl)glutaric acid] | 30 |
| Cc1nc2ccc3ccc(CNc4ccc([N+](=O)[O-])cc4)cc3c2c(=O)[nH]1 [3-Methyl-9-((4-nitroanilino)methyl)benzo)(f)quinazolin-1(2H)-one] | 400 |
| Cc1nc2ccc3ccc(CNc4ccccc4)cc3c2c(=O)[nH]1 [3-Methyl-9-(anilinomethyl)benzo(f)quinazolin-1(2H)-one] | 7000 |
| Cc1nc2ccc3ccc(Oc4ccc(C#N)cc4)cc3c2c(=O)[nH]1 [4-((1,2-Dihydro-3-methyl-1-oxobenzo[f]quinazolin-9-yl)oxy)benzonitrile] | > 10000 |
| Cc1nc2ccc3ccc(CNc4ccc(C#N)cc4)cc3c2c(=O)[nH]1 [4-(((1,2-Dihydro-3-methyl-1-oxobenzo(f)quinazolin-9-yl)methyl)amino)benzonitrile] | 30 |
| Cc1nc2ccc3ccc(CNc4ccc(C(=O)O)cc4)cc3c2c(=O)[nH]1 [4-(((1,2-Dihydro-3-methyl-1-oxobenzo[f]quinazolin-9-yl)methyl)amino)benzoic acid] | 2200 |

same assay, conditions: read-out: Tumor Cell Culture Cytotoxicity IC50 SW480; Table C, 5,6-dihydro 3-amino derivatives

| SMILES | IC50 [nM] |
| --- | --- |
| C#CCN(CC#C)S(=O)(=O)c1ccc2c(c1)CCc1nc(N)[nH]c(=O)c1-2 [8-SO2N-(Propargyl)2, 3-Amino-1,2,5,6-tetrahydro-1-oxo-N,N-bis(prop-2-vnyl)benzo[f]quinazoline-8-sulfonamide] | 60000 |

molecular target: T1, Mammalian Thymidylate Synthase (Homo sapiens, UniProt P04818); test: Thymidylate synthase inhibition, tritium release assay; format: biochemical; settings: not given
T1 construct: made in house; host or cells: Escherichia coli
T1 sequence (P04818 whole entry): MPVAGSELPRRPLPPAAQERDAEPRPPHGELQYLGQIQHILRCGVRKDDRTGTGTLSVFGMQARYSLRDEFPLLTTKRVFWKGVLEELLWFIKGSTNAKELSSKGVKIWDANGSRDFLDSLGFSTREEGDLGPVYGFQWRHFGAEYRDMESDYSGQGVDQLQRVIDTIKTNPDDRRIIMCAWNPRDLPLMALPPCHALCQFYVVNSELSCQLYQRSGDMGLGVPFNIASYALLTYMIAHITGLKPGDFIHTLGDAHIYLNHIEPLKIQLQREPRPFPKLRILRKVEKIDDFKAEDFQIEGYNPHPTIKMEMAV

| SMILES | IC50 [nM] |
| --- | --- |
| Cc1nc2c(c(=O)[nH]1)-c1cc(S(=O)(=O)Cl)ccc1CC2 [1,2,5,6-Tetrahydro-3-methyl-1-oxobenzo(f)quinazoline-9-sulfonylchloride] | 1000 to 300000 |
| Nc1nc(O)c2c(ccc3cc(N)c(Br)cc32)n1 [3,8-Diamino-9-bromobenzo(f)quinazolin-1(2H)-one] | < 1000 |
| Nc1nc2c(c(=O)[nH]1)-c1ccc(S(N)(=O)=O)cc1CC2 [3-Amino-1,2,5,6-tetrahydro-1-oxobenzo(f)quinazoline-8-sulfonamide] | 1000 to 300000 |
| Nc1nc(O)c2c(n1)CCc1cc([N+](=O)[O-])ccc1-2 [3-Amino-5,6-dihydro-8-nitro(f)quinazolin-1(2H)-one] | 1000 to 300000 |
| Nc1nc2ccc3cc(Cl)c(Cl)cc3c2c(=O)[nH]1 [3-Amino-8,9-dichlorobenzo(f)quinazolin-1(2H)-one] | < 1000 |
| Nc1nc2ccc3cc(F)ccc3c2c(=O)[nH]1 [3-Amino-8-fluorobenzo(f)quinazolin-1(2H)-one] | 1000 to 300000 |
| Nc1nc2ccc3cc([N+](=O)[O-])c(Br)cc3c2c(=O)[nH]1 [3-Amino-9-bromo-8-nitrobenzo(f)quinazolin-1(2H)-one] | 1000 to 300000 |
| Nc1nc(O)c2c(ccc3ccc(Br)cc32)n1 [3-Amino-9-bromobenzo(f)quinazolin-1(2H)-one] | < 1000 |
| Nc1nc2ccc3ccc(Cl)cc3c2c(=O)[nH]1 [3-Amino-9-chlorobenzo(f)quinazolin-1(2H)-one] | < 1000 |
| CCOc1ccc2ccc3nc(N)[nH]c(=O)c3c2c1 [3-Amino-9-ethoxybenzo(f)quinazolin-1(2H)-one] | 1000 to 300000 |
| C#Cc1ccc2ccc3nc(N)[nH]c(=O)c3c2c1 [3-Amino-9-ethynylbenzo(f)quinazolin-1(2H)-one] | < 1000 |
| Nc1nc(O)c2c(ccc3ccc(F)cc32)n1 [3-Amino-9-fluorobenzo(f)quinazolin-1(2H)-one] | < 1000 |
| Nc1nc(O)c2c(ccc3ccc(I)cc32)n1 [3-Amino-9-iodobenzo(f)quinazolin-1(2H)-one] | < 1000 |
| COc1ccc2ccc3nc(N)[nH]c(=O)c3c2c1 [3-Amino-9-methoxybenzo(f)quinazolin-1(2H)-one] | 1000 to 300000 |
| CN(C)S(=O)(=O)c1ccc2ccc3nc(N)[nH]c(=O)c3c2c1 [3-Amino-N,N-dimethyl-1,2-dihydro-1-oxobenzo(f)quinazoline-9-sulfonamide] | 1000 to 300000 |
| Nc1nc2ccc3ccc(NS(=O)(=O)c4ccc(C(=O)O)cc4)cc3c2c(=O)[nH]1 [4-(((3-Amino-1,2-dihydro-1-oxobenzo(f)quinazolin-9-yl)amino)sulfonyl)benzoic acid] | < 1000 |
| Cc1nc2ccc3ccc(S(=O)(=O)Nc4ccc(C(=O)N[C@@H](CCC(=O)O)C(=O)O)cc4)cc3c2c(=O)[nH]1 [N-(4-((1,2-Dihydro-3-methyl-1-oxabenzo(f)quinazolin-9-yl)sulfonamido)benzoyl)-L-glutamic acid] | < 1000 |

same assay, conditions: Table A; vs. mammalian enzymes; read-out: I50

| SMILES | IC50 [nM] |
| --- | --- |
| Nc1nc(O)c2c(ccc3c(N)cccc32)n1 [3,7-Diaminobenzo(f)quinazolin-1(2H)-one] | 1000 to 300000 |
| Nc1cc(N)c2c(ccc3nc(N)[nH]c(=O)c32)c1 [3,8,10-Triaminobenzo(f)quinazolin-1(2H)-one] | 1000 to 300000 |
| Nc1ccc2c(c1)CCc1nc(N)[nH]c(=O)c1-2 [3,8-Diamino-5,6-dihydrobenzo(f)quinazolin-1(2H)-one] | 1000 to 300000 |
| Nc1nc2ccc3c(Br)c(N)c(Br)cc3c2c(=O)[nH]1 [3,8-Diamino-7,9-dibromobenzo(f)quinazolin-1(2H)-one] | 1000 to 300000 |
| Nc1ccc2c(c1)-c1c(nc(N)[nH]c1=O)CC2 [3,9-Diamino-5,6-dihydrobenzo(f)quinazolin-1(2H)-one] | 1000 to 300000 |
| Nc1nc(O)c2c(ccc3cccc(N)c32)n1 [3,10-diaminobenzo(f)quinazolin-1(2H)-one] | 1000 to 300000 |
| CC1(C)Cc2nc(N)nc(O)c2-c2ccccc21 [3-Amino-5,6-dihydro-6,6-dimethylbenzo(f)quinazolin-1(2H)-one] | 1000 to 300000 |
| CC1Cc2nc(N)nc(O)c2-c2ccccc21 (stereo not shown) [3-Amino-5,6-dihydro-6-methylbenzo(f)quinazolin-1(2H)-one] | 1000 to 300000 |
| Cc1cc(C)c2c(c1)-c1c(nc(N)[nH]c1=O)CC2 [3-Amino-5,6-dihydro-7,9-dimethylbenzo(f)quinazolin-1(2H)-one] | 1000 to 300000 |
| Nc1nc(O)c2c(n1)CCc1c(I)cccc1-2 [3-Amino-5,6-dihydro-7-iodobenzo(f)quinazolin-1(2H)-one] | 1000 to 300000 |
| Cc1cccc2c1CCc1nc(N)[nH]c(=O)c1-2 [3-Amino-5,6-dihydro-7-methylbenzo(f)quinazolin-1(2H)-one] | 1000 to 300000 |
| Nc1nc2c(c(=O)[nH]1)-c1cc(O)ccc1CC2 [3-Amino-5,6-dihydro-9-hydroxybenzo(f)quinazolin-1(2H)-one] | 1000 to 300000 |
| Cc1ccc2c(c1)-c1c(O)nc(N)nc1CC2 [3-Amino-5,6-dihydro-9-methylbenzo(f)quinazolin-1(2H)-one] | < 1000 |
| Nc1nc(O)c2c(cc(CO)c3ccccc32)n1 [3-Amino-6-(hydroxymethyl)benzo(f)quinazolin-1(2H)-one] | 1000 to 300000 |
| Cc1cc2nc(N)[nH]c(=O)c2c2ccccc12 [3-Amino-6-methylbenzo(f)quinazolin-1(2H)-one] | 1000 to 300000 |
| Cc1cc(C)c2ccc3nc(N)[nH]c(=O)c3c2c1 [3-Amino-7,9-dimethylbenzo(f)quinazolin-1(2H)-one] | 1000 to 300000 |
| Nc1nc2c(c(=O)[nH]1)-c1cccc(Br)c1CC2 [3-Amino-7-bromo-5,6-dihydrobenzo(f)quinazolin-1(2H)-one] | 1000 to 300000 |
| Nc1nc2c(c(=O)[nH]1)-c1cccc(F)c1CC2 [3-Amino-7-fluoro-5,6-dihydrobenzo(f)quinazolin-1(2H)-one] | 1000 to 300000 |
| Nc1nc2ccc3cc([N+](=O)[O-])cc([N+](=O)[O-])c3c2c(=O)[nH]1 [3-Amino-8,10-dinitrobenzo(f)quinazolin-1(2H)-one] | 1000 to 300000 |
| Nc1nc(O)c2c(ccc3cc(Br)c([N+](=O)[O-])cc32)n1 [3-Amino-8-bromo-9-nitrobenzo(f)quinazolin-1(2H)-one] | 1000 to 300000 |
| CC1Cc2nc(N)nc(O)c2-c2ccc(Cl)cc21 (stereo not shown) [3-Amino-8-chloro-5,6-dihydro-6-methylbenzo(f)quinazolin-1(2H)-one] | 1000 to 300000 |
| Nc1nc2c(c(=O)[nH]1)-c1ccc(Cl)cc1CC2 [3-Amino-8-chloro-5,6-dihydrobenzo(f)quinazolin-1(2H)-one] | 1000 to 300000 |
| Cc1cc2nc(N)[nH]c(=O)c2c2ccc(Cl)cc12 [3-Amino-8-chloro-6-methylbenzo(f)quinazolin-1(2H)-one] | 1000 to 300000 |
| Nc1nc2ccc3cc(Cl)ccc3c2c(=O)[nH]1 [3-Amino-8-chlorobenzo(f)quinazolin-1(2H)-one] | 1000 to 300000 |
| CCSc1ccc2ccc3nc(N)nc(O)c3c2c1 [3-Amino-9-(ethylthio)benzo(f)quinazolin-1(2H)-one] | 1000 to 300000 |
| CSc1ccc2ccc3nc(N)nc(O)c3c2c1 [3-Amino-9-(methylthio)benzo(f)quinazolin-1(2H)-one] | < 1000 |
| CC1Cc2nc(N)nc(O)c2-c2cc(Cl)ccc21 (stereo not shown) [3-Amino-9-chloro-5,6-dihydro-6-methylbenzo(f)quinazolin-1(2H)-one] | < 1000 |
| Nc1nc2ccc3cccc([N+](=O)[O-])c3c2c(=O)[nH]1 [3-Amino-10-nitrobenzo(f)quinazolin-1(2H)-one] | 1000 to 300000 |
| Cc1nc2c(c(=O)[nH]1)-c1cccc(Cl)c1CC2 [7-Chloro-5,6-dihydro-3-methylbenzo(f)quinazolin-1(2H)-one] | 1000 to 300000 |
